Experimental data published in patent US5089623A, “Certain imidate insecticides” (Imperial Chemical Industries Plc, priority 1990, dated 1992).

Legend:
Format in all cases: in vivo
[1] = test system: Housefly [Musca domestica]; assay: Housefly insecticidal test (HF); conditions: per 25 female houseflies, 48 hours
[2] = test system: Tobacco Budworm [Heliothis virescens (Fabricius)] eggs; assay: Tobacco budworm egg test (TBW-E); conditions: percent in solution
[3] = test system: Cabbage Looper [Trichoplusia ni (Hubner)]; assay: Cabbage looper test (CL); conditions: second-instar larvae, 3-5 days, percent in solution
[4] = test system: Aster Leafhopper [Macrosteles fascifrens (Stal)]; assay: Aster leafhopper test (LH); conditions: adults/nymphs, 48 hours, percent in solution
[5] = test system: Maize weevil [Sitophilus Zeamais (Motschulsky)]; assay: Maize weevil test (MW); conditions: adult weevils, treated corn seeds, 48 hours, percent in solution
Outline: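 Adult weevils (10) were placed with four corn seeds that had been dipped 2-3 s in compound dissolved in 50:50 acetone:water, then dried, and held at about 25° C. Mortality was scored at 48 h. LC50 was taken from dosage-mortality curves and expressed as percent compound in solution, from a 0.01% top concentration.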

| SMILES | LC50 HF [1] | LC50 TBW E [2] | LC50 CL [3] | LC50 LH [4] | LC50 MW [5] |
| --- | --- | --- | --- | --- | --- |
| CC(C)(C)C(=Nc1ccc(Cl)c(Cl)c1)OCc1cccc(Oc2ccccc2)c1 [Compound 25] | > 100 µg | > 0.1% | 0.01% | > 0.05% | > 0.01% |
| FC(F)(F)C(=Nc1ccc(Cl)cc1)OCc1cccc(Oc2ccccc2)c1 [Compound 35] | 15 µg | 0.03% | 0.008% | > 0.05% | > 0.01% |
| CC(C)C(=Nc1ccccc1)OCc1cccc(Oc2ccccc2)c1 [Compound 43] | 7 µg | 0.05% | 0.018% | > 0.05% | > 0.01% |
| Fc1ccc(N=C(OCc2cccc(Oc3ccccc3)c2)C(F)F)cc1 [Compound 50] | 43 µg | > 0.05% | 0.02% | > 0.05% | > 0.01% |
| CC(C)C(=Nc1ccccc1C(F)(F)F)OCc1cccc(Oc2ccccc2)c1 [Compound 72] | > 100 µg | > 0.1% | 0.08% | > 0.05% | > 0.01% |
| CCS(=O)(=O)c1ccc(N=C(OCc2cccc(Oc3ccccc3)c2)C(C)C)cc1Cl [Compound 112] | > 100 µg | > 0.1% | 0.025% | > 0.05% | > 0.01% |
| Fc1ccc(N=C(OCc2cccc(Oc3ccccc3)c2)C(F)(F)C(F)(F)F)cc1Cl [Compound 117] | 55 µg | > 0.1% | 0.006% | 0.0003% | > 0.01% |
| CC(C)C(=Nc1ccc(F)c(Cl)c1)OCc1cccc(Oc2ccccc2F)c1 [Compound 119] | 27 µg | 0.048% | 0.0007% | 0.0008% | > 0.01% |
| CC1(C)C(C(=Nc2ccc(F)c(Cl)c2)OCc2cccc(Oc3ccccc3)c2)C1(C)C [Compound 124] | 17 µg | > 0.1% | 0.01% | > 0.05% | > 0.01% |
| CC(C)C(=Nc1cccc(Br)c1)OCc1cccc(Oc2ccccc2)c1 [Compound 128] | 4.5 µg | 0.037% | 0.005% | 0.003% | > 0.01% |
| CC(C)C(=Nc1ccccc1Br)OCc1cccc(Oc2ccccc2)c1 [Compound 132] | 65 µg | > 0.1% | 0.025% | > 0.05% | > 0.01% |
| CSc1ccc(N=C(OCc2cccc(Oc3ccccc3)c2)C(C)C)cc1 [Compound 142] | 15 µg | 0.1% | 0.005% | > 0.05% | > 0.01% |
| COc1cccc(N=C(OCc2cccc(Oc3ccccc3)c2)C(C)C)c1 [Compound 143] | 10 µg | < 0.1% | 0.002% | 0.006% | > 0.01% |
| COC(=O)c1ccc(N=C(OCc2cccc(Oc3ccccc3)c2)C(C)C)cc1 [Compound 151] | 38 µg | > 0.1% | 0.009% | > 0.05% | > 0.01% |
| CC(C)C(=Nc1ccc(C(C)(C)C)cc1)OCc1cccc(Oc2ccccc2)c1 [Compound 153] | > 100 µg | 0.1% | 0.004% | 0.0005% | > 0.01% |
| Cc1cccc(N=C(OCc2cccc(Oc3ccccc3)c2)C(C)C)c1 [Compound 155] | 9 µg | 0.06% | 0.004% | > 0.05% | > 0.01% |
| Cc1ccc(N=C(OCc2cccc(Oc3ccccc3)c2)C(C)C)cc1 [Compound 156] | 10 µg | 0.05% | 0.004% | > 0.05% | > 0.01% |
| COc1ccc(N=C(OCc2cccc(Oc3ccccc3)c2)C(C)C)cc1 [Compound 160] | 7 µg | 0.09% | 0.005% | 0.05% | > 0.01% |
| CC(C)C(=Nc1ccc(C#N)cc1)OCc1cccc(Oc2ccccc2)c1 [Compound 172] | 5 µg | 0.04% | 0.002% | > 0.05% | > 0.01% |

| SMILES | LC50 HF [1] | LC50 TBW E [2] | LC50 CL [3] | LC50 LH [4] | LC50 MW [5] |
| --- | --- | --- | --- | --- | --- |
| c1ccc(Oc2cccc(COC(=Nc3ccc4c(c3)OCO4)C3CC3)c2)cc1 [Compound 177] | 13 µg | > 0.1% | 0.002% | > 0.05% | 0.01% |
| CCC(=Nc1ccc2c(c1)OCO2)OCc1cccc(Oc2ccccc2)c1 [Compound 178] | 6 µg | > 0.1% | 0.004% | > 0.05% | > 0.01% |
| CC(C)C(=Nc1ccc(-c2ccccc2)cc1)OCc1cccc(Oc2ccccc2)c1 [Compound 186] | > 100 µg | > 0.1% | 0.008% | > 0.05% | > 0.01% |
| CC(C)C(=Nc1ccc(Cl)cc1)OCc1cccc(Oc2ccc(F)cc2)c1 [Compound 189] | 17 µg | 0.07% | 0.00027% | 0.002% | > 0.01% |
| CC(C)C(=Nc1ccc(Cl)c(C(F)(F)F)c1)OCc1cccc(Oc2ccc(F)cc2)c1 [Compound 193] | 100 µg | > 0.1% | 0.00075% | 0.001% | > 0.01% |
| CC(C)C(=Nc1ccc(F)c(Cl)c1)OCc1cccc(Oc2ccc(F)c(F)c2)c1 [Compound 217] | 8 µg | 0.015% | 0.00006% | > 0.05% | 0.0084% |
| CC(C)C(=Nc1ccc2c(c1)OCO2)OCc1cccc(Oc2ccc(Cl)cc2)c1 [Compound 240] | 14 µg | 0.04% | 0.0003% | > 0.05% | > 0.01% |
| CC(C)C(=Nc1cccc(I)c1)OCc1cccc(Oc2ccc(F)cc2)c1 [Compound 255] | 16 µg | 0.075% | 0.00017% | 0.0005% | > 0.01% |
| CSc1ccc(Oc2cccc(COC(=Nc3ccc(F)c(Cl)c3)C(C)C)c2)cc1 [Compound 256] | > 100 µg | 0.1% | 0.007% | > 0.05% | > 0.01% |
| CC(C)C(=Nc1ccc(F)cc1)OCc1cccc(Oc2ccc(Br)cc2)c1 [Compound 259] | 15 µg | 0.05% | 0.0003% | > 0.05% | > 0.01% |
| CC(C)C(=Nc1ccc(F)c([N+](=O)[O-])c1)OCc1cccc(Oc2ccccc2)c1 [Compound 293] | 19 µg | > 0.1% | 0.0045% | > 0.05% | > 0.01% |
| CC(C)(F)C(=Nc1ccc(F)c(Cl)c1)OCc1cccc(Oc2ccc(F)cc2F)c1 [Compound 315] | > 100 µg | > 0.1% | 0.002% | > 0.05% | > 0.01% |
| CC(C)(F)C(=Nc1ccc(F)c(Cl)c1)OCc1cc(Oc2ccc(F)cc2)ccc1F [Compound 316] | 100 µg | > 0.1% | 0.0015% | > 0.05% | > 0.01% |
| CC(C)C(=Nc1cccc(C(C)(C)C)c1)OCc1cccc(Oc2ccc(F)cc2)c1 [Compound 350] | > 100 µg | > 0.1% | 0.0045% | > 0.05% | > 0.01% |
| CC(C)C(=Nc1ccc(Br)cc1F)OCc1cccc(Oc2ccc(F)cc2)c1 [Compound 351] | 26 µg | > 0.1% | 0.0007% | > 0.05% | > 0.01% |
| CSc1ccc(N=C(OCc2ccc(F)c(Oc3ccccc3)c2)C(C)C)cc1 [Compound 353] | < 100 µg | > 0.1% | > 0.1% | > 0.05% | > 0.01% |
| Cc1ccc(N=C(OCc2ccc(F)c(Oc3ccccc3)c2)C(C)C)cc1F [Compound 354] | < 100 µg | 0.018% | > 0.1% | < 0.05% | 0.0068% |
| Cc1ccc(N=C(OCc2ccc(F)c(Oc3ccc(F)cc3)c2)C(C)C)cc1F [Compound 355] | < 100 µg | > 0.1% | > 0.1% | < 0.05% | > 0.01% |
| Cc1ccc(N=C(OCc2ccc(F)c(Oc3ccccc3)c2)C(C)C)cc1Cl [Compound 356] | < 100 µg | 0.025% | > 0.1% | < 0.05% | > 0.01% |
